{"source": "patent US12377042B2", "about": "“Botanical and bacterial extracts displaying retinol-like activity” (KENVUE BRANDS LLC, priority 2018, dated 2025)", "key": {"[1]": {"system": "human epidermal skin equivalents", "experiment": "Oleic acid induced hyperkeratinization in human epidermal skin equivalents", "assay_type": "cell-based", "details": "for % Hyperkeratinization (normalized by 10% OA), Average / Stratum Corneum Thickness (% of Total Epidermis), Average: topical", "procedure": "Human epidermal skin equivalents from MatTek Company (Ashland, MA, USA) were used. The skin equivalents were topically treated with 10% oleic acid (OA) either without or with the addition of 1 μM 3-(4-farnesyloxyphenyl)-propionic acid in a proprietary MatTek medium (pheno-red free, hydrocortisone free) for 48 hours. The epidermal skin equivalents were collected at the end of treatment and fixed in 10% neutral buffered formalin solution (Thermo Fisher Scientific, Hudson, NH, USA), dehydrated and embedded in paraffin. Tissue sections (5 μm thick) were cut and were stained with hematoxylin-eosin. Three pictures per section were taken for each skin equivalent. The thickness of the stratum cornea or epidermis was measured using ImagePro Plus (Media Cybernetics Inc., Rockville, MD, USA). The stratum corneum thickness was expressed as % of total epidermis (=thickness of stratum corneum divided by the sum of thicknesses of stratum corneum and epidermis). The % hyperkeratinizatin was normalized by the thickness of 10% OA-treated tissues. Statistical analysis was performed using two-tailed two-sample equal variance Student t test (Microsoft Office Excel 2007; Microsoft, Redmond, WA, USA)."}, "[2]": {"target": "T1, Retinoic acid receptor gamma (RARg) (Homo sapiens, UniProt P13631)", "T1 construct": "the UAS-driven beta-lactamase is the reporter", "T1 sequence (P13631 185-419 limits assumed)": "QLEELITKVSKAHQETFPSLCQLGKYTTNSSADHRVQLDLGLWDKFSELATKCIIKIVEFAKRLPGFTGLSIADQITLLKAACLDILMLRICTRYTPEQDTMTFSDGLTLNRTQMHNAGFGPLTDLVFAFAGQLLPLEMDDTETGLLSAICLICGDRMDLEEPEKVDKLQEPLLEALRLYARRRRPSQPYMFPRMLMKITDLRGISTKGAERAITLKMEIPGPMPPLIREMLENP", "experiment": "RARg Transactivation Assay (GeneBLAzer RAR gamma-UAS-bla HEK 293T)", "assay_type": "cell-based", "details": "solution in DMSO at different concentrations", "experimental": "Retinoic acid receptor gamma (RARg) agonism was assessed using the Invitrogen GeneBLAzer RAR gamma-UAS-bla HEK 293T cell-based assay, in which activation of RARg results in transcription of beta lactamase. When a FRET probe is added to cells, FRET is observed. However, upon receptor activation and subsequent beta lactamase expression, the probe is cleaved and FRET is no longer observed.\nCells in culture are washed with PBS, trypsinized and resuspended in growth media, counted using ViCell cell counter; the appropriate amount of cells is then spun down and resuspended in assay buffer (at 0.5E6 cells/ml). 15 k cells in 30 ul assay buffer is plated per well in Greiner black walled, clear flat bottom plates using Combi dispenser. The last two columns are filled with assay buffer. […]\nAfter 18-20 h of incubation, 8 ul FRET dye (Invitrogen K1096) is added using Tempest dispenser, after which plates are spun down at 800 rpm for 2 min without brakes and incubated in the dark at room temperature for 2 h. The bottom of the plates is cleaned using anti-static cleaning wipe before measuring fluorescence using BMG Pherastar plate reader (using FRET module, 10 reads, gain for both channels=1000, Ex 409, Em1 460, Em2 530). […]"}, "[3]": {"details": "1 uM together with 10% oleic acid, 48 hours"}}, "note": "pEC50: −log10 of the molar value."}
{"compound": "CC(C)=CCCC(C)=CCCC(C)=CCOc1ccc(CCC(=O)O)cc1", "note": "[3-(4-farnesyloxyphenyl)-propionic acid]", "values": [{"measurement": "% Hyperkeratinization (normalized by 10% OA), Average", "setting": "[1]; [3]", "value": 76, "unit": "%"}, {"measurement": "Stratum Corneum Thickness (% of Total Epidermis), Average", "setting": "[1]; [3]", "value": 38, "unit": "%"}, {"measurement": "oleic-acid (OA) induced hyperkeratinization (in words)", "setting": "[1]; 1 uM with 10% oleic acid, 48 hours, p<0.05", "value": "significantly (p<0.05) reduced"}, {"measurement": "pEC50", "setting": "[2]", "value": 6.23}]}
{"compound": "CCCCCCCC/C=C\\CCCCCCCC(=O)O", "note": "[oleic acid, reference compound]", "values": [{"measurement": "Stratum Corneum Thickness (% of Total Epidermis), Average", "setting": "[1]; 10% oleic acid alone, 48 hours", "value": 50, "unit": "%"}, {"measurement": "% Hyperkeratinization (normalized by 10% OA), Average", "setting": "[1]; 10% oleic acid alone, 48 hours (reference)", "value": 100, "unit": "%"}]}
